Active and inactive are the calls of the source. No cut-off for these calls is given here.
What was measured:
A549 = experiment: Cytotoxicity against human A549 cells at 18 uM; assay type: functional, cell-based
[1] = biological target: T1, M-phase inducer phosphatase 1 (Homo sapiens) (UniProt P30304); experiment: Inhibition of Cdc25a up to 10 uM
T1 sequence (whole entry): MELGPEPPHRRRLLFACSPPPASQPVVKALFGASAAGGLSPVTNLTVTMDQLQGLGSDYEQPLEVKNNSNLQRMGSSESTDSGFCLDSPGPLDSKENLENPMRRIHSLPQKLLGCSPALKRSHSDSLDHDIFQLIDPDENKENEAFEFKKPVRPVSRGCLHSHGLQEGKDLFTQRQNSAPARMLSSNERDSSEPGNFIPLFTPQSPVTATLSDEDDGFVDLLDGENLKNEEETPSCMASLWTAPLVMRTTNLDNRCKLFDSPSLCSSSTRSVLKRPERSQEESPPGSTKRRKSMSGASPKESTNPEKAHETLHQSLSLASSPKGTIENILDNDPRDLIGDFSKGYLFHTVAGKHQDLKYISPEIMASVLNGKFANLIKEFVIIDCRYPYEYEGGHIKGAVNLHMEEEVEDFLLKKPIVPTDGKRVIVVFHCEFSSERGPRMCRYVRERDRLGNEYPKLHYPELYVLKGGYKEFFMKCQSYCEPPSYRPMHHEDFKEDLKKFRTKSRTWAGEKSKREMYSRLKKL

P388 = experiment: Cytotoxicity against mouse P388 cells at 18 uM; assay type: functional, cell-based
[2] = biological target: Cyclin-dependent kinase 1 (Homo sapiens, UniProt P06493)
Chain of Cyclin-dependent kinase 1 (P06493 whole entry): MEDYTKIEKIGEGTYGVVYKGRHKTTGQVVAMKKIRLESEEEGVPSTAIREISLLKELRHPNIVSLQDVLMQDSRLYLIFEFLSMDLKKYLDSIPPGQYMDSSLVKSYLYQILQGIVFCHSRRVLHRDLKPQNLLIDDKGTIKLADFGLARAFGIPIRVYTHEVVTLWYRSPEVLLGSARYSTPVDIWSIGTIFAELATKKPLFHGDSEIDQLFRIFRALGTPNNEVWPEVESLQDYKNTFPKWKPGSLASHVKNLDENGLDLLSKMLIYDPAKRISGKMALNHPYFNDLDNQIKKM

Activity [1]: inactive | IC50 [2]: 13 µM
SMILES: Cn1c(=O)[nH]c2ncnc(NCCS(=O)(=O)O)c21 [MICROXINE]
Activity (A549): inactive | Activity (P388): inactive

Reference: ChEMBL document CHEMBL1150819, “Microxine, a new cdc2 kinase inhibitor from the Australian marine sponge Microxina species” (J Nat Prod, 2001)
